Read-outs that look alike come from different tables or passages of the source.
Assays:
Experiment in all cases: Measurement of antifungal activity (minimum inhibitory concentration), agar dilution
Assay type in all cases: cell-based
[1] = system: T. mentagrophytes IF07552; conditions: Sabouraud's agar, one week at 27° C.; for MIC: Trichophyton mentagrophytes, 168 h, read-out: MIC value (minimum compound concentration that definitely inhibited any visible growth)
Protocol: (§1) Measurement of Antifungal Activity (Measurement of Minimum Inhibitory Concentration)
(§2) Antifungal activity of representative compounds of the present invention against dermatophytes was investigated.
(§3) Briefly, strains of dermatophytes to be tested were grown on slant media prepared with Sabouraud's agar (product of Nissuiseiyaku; pepton 1.0%, glucose 4.0%, agar 1.5%, pH 5.9) at 27° C. for two weeks, so as to allow sufficient production of conidiospores. Subsequently, sterilized saline solution containing 0.05% (wt/vol) TWEEN 80 was added thereto, and while the surface of the each medium was scraped with a platinum loop, the conidiospores were deaggregated and suspended in the saline solution. The suspension was filtered through a double face sterilized gauze sheet so as to remove agar and hypha pellets. The filtrate was diluted with a saline solution so as to make the concentration of the conidiospores decrease to 10^6/ml by use of a cytometer, and the resultant dilute filtrate served as a test dermatophytes solution. Meanwhile, a stock solution was prepared by adding 1 ml of dimethylsulfoxide to 10 mg of a compound to be tested. An aliquot (500 μl) of the stock solution was combined with dimethylsulfoxide (500 μl), to thereby prepare a 2-fold dilute solution. Dilution was similarly repeated until 13 different dilute solutions ranging from 10 to 0.0025 mg/ml (concentrations of the ultimate test system: 100-0.025 μg/ml) were obtained. 100 μl each of the diluted solutions of the test compound was dispensed into the sterilized petri dish. A Sabouraud's agar (pepton 1.0%, glucose 4.0%, agar 1.5%, pH 5.9; 10 ml), which had been sterilized and dissolved, was added thereto, and the mixture was thoroughly mixed and solidified. Next, the above-prepared test dermatophytes solution was planted in amounts of 5 μl by use of a microplanter.

T. violaceum TIMM1264 = conditions: Sabouraud's agar, one week at 27° C.; for MIC: Trichophyton violaceum, 168 h, read-out: MIC value (minimum compound concentration that definitely inhibited any visible growth)
Protocol: as §1, §2, §3

M. canis TIMM0760 = conditions: Sabouraud's agar, one week at 27° C.; for MIC: Microsporum canis, 168 h, read-out: MIC value (minimum compound concentration that definitely inhibited any visible growth)
Protocol: as §1, §2, §3

[2] = system: T. mentagrophytes TIMM1177; conditions: Sabouraud's agar, one week at 27° C.; for MIC: Trichophyton mentagrophytes, 168 h, read-out: MIC value (minimum compound concentration that definitely inhibited any visible growth)
Protocol: as §1, §2, §3

M. gypseum IF08231 = conditions: Sabouraud's agar, one week at 27° C.; for MIC: Nannizzia gypsea, 168 h, read-out: MIC value (minimum compound concentration that definitely inhibited any visible growth)
Protocol: as §1, §2, §3

T. rubrum IF05808 = conditions: Sabouraud's agar, one week at 27° C.; for MIC: Trichophyton rubrum, 168 h, read-out: MIC value (minimum compound concentration that definitely inhibited any visible growth)
Protocol: as §1, §2, §3

[3] = system: T. mentagrophytes IF05811; conditions: Sabouraud's agar, one week at 27° C.; for MIC: Trichophyton mentagrophytes, 168 h, read-out: MIC value (minimum compound concentration that definitely inhibited any visible growth)
Protocol: as §1, §2, §3

T. rubrum IF09185 = conditions: Sabouraud's agar, one week at 27° C.; for MIC: Trichophyton rubrum, 168 h, read-out: MIC value (minimum compound concentration that definitely inhibited any visible growth)
Protocol: as §1, §2, §3

[4] = system: T. mentagrophytes TIMM1189; conditions: Sabouraud's agar, one week at 27° C.; for MIC: Trichophyton mentagrophytes, 168 h, read-out: MIC value (minimum compound concentration that definitely inhibited any visible growth)
Protocol: as §1, §2, §3

SMILES	MIC [1] [µg/mL]	MIC (T. violaceum TIMM1264) [µg/mL]	MIC (M. canis TIMM0760) [µg/mL]	MIC [2] [µg/mL]	MIC (M. gypseum IF08231; H. gypseum IF08231 (Table 1)) [µg/mL]	MIC (T. rubrum IF05808) [µg/mL]	MIC [3] [µg/mL]	MIC (T. rubrum IF09185) [µg/mL]	MIC [4] [µg/mL]	MIC value (minimum compound concentration that definitely inhibited any visible growth) [1] [µg/mL]	MIC value (minimum compound concentration that definitely inhibited any visible growth) (T. violaceum TIMM1264) [µg/mL]	MIC value (minimum compound concentration that definitely inhibited any visible growth) (M. canis TIMM0760) [µg/mL]	MIC value (minimum compound concentration that definitely inhibited any visible growth) [2] [µg/mL]	MIC value (minimum compound concentration that definitely inhibited any visible growth) (M. gypseum IF08231; H. gypseum IF08231 (Table 1)) [µg/mL]	MIC value (minimum compound concentration that definitely inhibited any visible growth) (T. rubrum IF05808) [µg/mL]	MIC value (minimum compound concentration that definitely inhibited any visible growth) [3] [µg/mL]	MIC value (minimum compound concentration that definitely inhibited any visible growth) (T. rubrum IF09185) [µg/mL]	MIC value (minimum compound concentration that definitely inhibited any visible growth) [4] [µg/mL]	MIC (M. gypseum IF08231; M. gypseum IF08231 (Table 2)) [µg/mL]
C=C(C)c1cccc(CN(C)C/C=C/C#CC(C)(C)C)c1.Cl [Compound 3, trans-N-(6,6-Dimethyl-2-hepten-4-ynyl)-N-methyl-(3-isopropenylbenzyl)amine Hydrochloride]	0.2	0.1	0.1	0.1	0.39	0.1	0.1	0.1	0.2										
C=Cc1cccc(CN(C)C/C=C/C#CC(C)(C)C)c1.Cl [Compound 10, trans-N-(6,6-Dimethyl-2-hepten-4-ynyl)-N-methyl-(3-vinylbenzyl)amine Hydrochloride]	0.39	0.78	0.2	0.39	0.78	0.39	0.39	0.39	0.39										
CC(C)=Cc1cccc(CN(C)C/C=C/C#CC(C)(C)C)c1.Cl [Compound 12, trans-N-(6,6-Dimethyl-2-hepten-4-ynyl)-N-methyl-[3-(2-methyl-1-propenyl)benzyl]amine Hydrochloride]	0.39	0.39	0.2	0.78	0.78	0.39	0.39	0.2	0.39										
C=C(C)c1cc(C)cc(CN(C)C/C=C/C#CC(C)(C)C)c1.Cl [Compound 19, trans-N-(6,6-Dimethyl-2-hepten-4-ynyl)-N-methyl-(3-isopropenyl-5-methylbenzyl)amine Hydrochloride]	0.05	0.1	0.1	0.1	0.2	0.1	0.1	0.1	0.05										
C=C(CC)c1cccc(CN(C)C/C=C/C#CC(C)(C)C)c1.Cl [Compound 25, trans-N-(6,6-Dimethyl-2-hepten-4-ynyl)-N-methyl-[3-(1-ethylvinyl)benzyl]amine Hydrochloride]	0.78	0.78	0.39	0.78	3.12	0.78	0.78	0.78	0.78										
C/C=C(/C)c1cccc(CN(C)C/C=C/C#CC(C)(C)C)c1.Cl [Compound 27, trans-, cis-N-(6,6-Dimethyl-2-hepten-4-ynyl)-N-methyl-[3-(1-methyl-1-propenyl)benzyl]amine Hydrochloride]										1.56	1.56	0.78	1.56	6.25	1.56	1.56	1.56	1.56	
C=C(C)c1ccccc1CN(C)C/C=C/C#CC(C)(C)C.Cl [Compound 39, trans-N-(6,6-Dimethyl-2-hepten-4-ynyl)-N-methyl-(2-isopropenylbenzyl)amine Hydrochloride]	6.25	12.5	6.25	6.25	12.5	3.12	6.25	3.12	6.25										
C=C(C)c1cccc(CN(CC)C/C=C/C#CC(C)(C)C)c1.Cl [Compound 45, trans-N-(6,6-Dimethyl-2-hepten-4-ynyl)-N-ethyl-(3-isopropenylbenzyl)amine Hydrochloride]	0.39	0.39	0.2	0.39	0.39	0.39	0.39	0.39	0.39										
C=C(C)c1cccc(CN(C)CC=Cc2ccccc2)c1.Cl [Compound 48, N-Cinnamyl-N-methyl-(3-isopropenylbenzyl)amine Hydrochloride]	3.12	6.25	1.56	6.25	6.25	1.56	6.25	1.56	6.25										
C=C(C)c1cccc(CN(C)C/C=C/C#CC(C)(C)C)c1C.Cl [Compound 52, trans-N-(6,6-Dimethyl-2-hepten-4-ynyl)-N-methyl-(3-isopropenyl-2-methylbenzyl)amine Hydrochloride]	12.5	12.5		12.5	3.12	12.5	12.5	12.5	12.5										
C=C(C)c1cc(F)cc(CN(C)C/C=C/C#CC(C)(C)C)c1.Cl [Compound 64, trans-N-(6,6-Dimethyl-2-hepten-4-ynyl)-N-methyl-(3-fluoro-5-isopropenylbenzyl)amine Hydrochloride]	0.1	0.2	0.2	0.1	0.39	0.1	0.1	0.1	0.1										
C=C(C)c1cc(CN(C)C/C=C/C#CC(C)(C)C)ccc1C.Cl [Compound 74, trans-N-(6,6-Dimethyl-2-hepten-4-ynyl)-N-methyl-(3-isopropenyl-4-methylbenzyl)amine Hydrochloride]	12.5	6.25	1.56	12.5	12.5	1.56	6.25	3.12	6.25										
C=C(C)c1cccc(CN(C)Cc2ccc(C(C)(C)C)cc2)c1.Cl [Compound 77, N-(4-tert-Butylbenzyl)-N-methyl-(3-isopropenylbenzyl)amine Hydrochloride]	0.1	0.2	0.2	0.2		0.1	0.39	0.1	0.2										0.39
C=Cc1cccc(CN(C)Cc2ccc(C(C)(C)C)cc2)c1.Cl [Compound 81, N-(4-tert-Butylbenzyl)-N-methyl-(3-vinylbenzyl)amine Hydrochloride]	0.39	0.78	0.2	0.39		0.2	0.39	0.39	0.78										0.39
C=C(C)c1cc(C)cc(CN(C)Cc2ccc(C(C)(C)C)cc2)c1.Cl [Compound 88, N-(4-tert-Butylbenzyl)-N-methyl-(3-isopropenyl-5-methylbenzyl)amine hydrochloride]	0.05	0.1	0.05	0.1		0.05	0.1	0.05	0.05										0.1
C=C(CC)c1cccc(CN(C)Cc2ccc(C(C)(C)C)cc2)c1.Cl [Compound 95, N-(4-tert-Butylbenzyl)-N-methyl-[3-(1-ethylvinyl)benzyl]amine Hydrochloride]	0.78	0.78	0.2	0.78		0.39	1.56	0.39	0.78										3.12

Reference: patent publication US6586633B1, “Amine derivatives” (Pola Chemical Industries, Inc., priority 2001, dated 2003)
